Results from US8507199B2, “Multi-color time resolved fluorophores based on macrocyclic lanthanide complexes” (Lumiphore, Inc., priority 2007, dated 2013).
Values joined by “and” are separate entries in the source; they are usually repeats but may differ in a detail not shown here. Equal entries are not always repeated.

Experiments:
[1] = Steady-state absorption and emission spectra; assay type: physicochemical
Text: FIG. 8 is a steady-state absorption spectrum of FITC-BH22IAM conjugate.

[2] = Luminescence lifetime decay (biexponential fit) of FITC-Tb-BH22IAM conjugate; assay type: physicochemical; conditions: Tb-coordinated conjugate, excitation at BH22IAM absorption (~340 nm), emission at 520 nm
Text: A short lifetime corresponding to the direct excitation of fluorescein (3.92 nsec) and a long lifetime corresponding to excitation of BH22IAM and energy transfer to fluorescein (524 nsec).
In another exemplary embodiment, the compounds of the invention emit light at an emission wavelength of the fluorophore attached to the metal chelate through the acceptor-linker. […] For example, compound 3, when coordinated to terbium and excited at a BH22IAM absorption wavelength (˜340 nm), the metal chelate emits at 520 nm, the characteristic wavelength of fluorescein with a lifetime of 524 nsec. The new lifetime is over 100-fold longer than the lifetime for a fluorescein solution that is directly excited (<5 nsec).
The 524 nsec of the conjugated fluorescein is acquired through direct excitation of the Tb-BH22IAM complex at 340 nm, which normally has a very long lifetime (2.6 msec), followed by energy transfer to the conjugated fluorescein and emission at the characteristic wavelength for fluorescein (520 nm).

## O=C(O)c1cc(NC(=S)NCCCCC2CN3CCNC(=O)c4cccc(c4O)C(=O)NCCN(CCNC(=O)c4cccc(c4O)C(=O)N2)CCN2CCNC(=O)c4cccc(c4O)C(=O)NCCN(CCNC(=O)c4cccc(c4O)C(=O)NCC2)CC3)ccc1-c1c2ccc(=O)cc-2oc2cc(O)ccc12 (stereo not drawn) [Compound 4a]
[1]; 340 nm assigned to BH22IAM, 490 nm to fluorescein
  absorption maxima: 340 nm and 490 nm
[1]; excitation at BH22IAM absorption (~340 nm)
  emission wavelength / emission maxima: 520 nm
[2]
  long lifetime corresponding to excitation of BH22IAM and energy transfer to fluorescein: 520 nsec and 524 nsec
